Measurements as given in the Kinase Knowledgebase extract (Sharma et al. 2016).

Biological target: EGFR (UniProt P00533)
Experiment: Inhibition of EGFR Kinase Activity

Sequence of EGFR (P00533 whole entry, looked up): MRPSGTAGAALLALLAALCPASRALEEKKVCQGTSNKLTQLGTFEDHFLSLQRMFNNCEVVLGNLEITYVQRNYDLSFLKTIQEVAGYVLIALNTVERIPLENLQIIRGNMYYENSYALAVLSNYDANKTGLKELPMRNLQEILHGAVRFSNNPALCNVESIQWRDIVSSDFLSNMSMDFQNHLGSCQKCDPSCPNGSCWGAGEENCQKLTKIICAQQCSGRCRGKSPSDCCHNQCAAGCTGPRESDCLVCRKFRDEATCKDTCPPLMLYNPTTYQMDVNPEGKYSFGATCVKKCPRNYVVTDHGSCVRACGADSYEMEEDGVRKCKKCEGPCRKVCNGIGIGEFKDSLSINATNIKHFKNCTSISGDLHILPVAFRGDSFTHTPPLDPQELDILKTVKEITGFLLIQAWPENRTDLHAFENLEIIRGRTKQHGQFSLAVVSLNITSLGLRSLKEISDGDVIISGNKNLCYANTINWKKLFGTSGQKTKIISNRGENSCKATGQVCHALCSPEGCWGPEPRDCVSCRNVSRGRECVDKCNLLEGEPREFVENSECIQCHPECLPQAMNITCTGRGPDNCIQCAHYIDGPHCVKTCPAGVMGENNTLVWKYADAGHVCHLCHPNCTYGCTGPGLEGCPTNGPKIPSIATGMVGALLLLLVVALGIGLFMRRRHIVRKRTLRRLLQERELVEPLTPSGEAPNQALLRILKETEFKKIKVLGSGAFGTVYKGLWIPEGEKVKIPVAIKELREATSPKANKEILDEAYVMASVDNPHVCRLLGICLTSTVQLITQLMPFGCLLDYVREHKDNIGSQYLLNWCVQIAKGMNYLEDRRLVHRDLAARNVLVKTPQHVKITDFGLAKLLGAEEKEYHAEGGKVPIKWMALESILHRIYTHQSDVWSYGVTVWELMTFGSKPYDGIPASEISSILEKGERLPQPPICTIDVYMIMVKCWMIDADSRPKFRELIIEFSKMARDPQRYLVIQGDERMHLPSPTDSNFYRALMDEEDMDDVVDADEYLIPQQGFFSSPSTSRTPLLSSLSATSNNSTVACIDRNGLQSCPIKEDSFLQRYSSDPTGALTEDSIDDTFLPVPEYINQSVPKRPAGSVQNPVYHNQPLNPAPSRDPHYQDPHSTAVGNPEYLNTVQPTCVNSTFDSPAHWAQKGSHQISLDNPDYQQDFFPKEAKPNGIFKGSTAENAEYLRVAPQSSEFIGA

IC50, < 50 µM:
CC#CC(=O)Nc1cccc(Nc2ncnc(N(C)c3ccc(OCCC)c(OCCC)c3)n2)c1, C=CC(=O)Nc1cccc(Nc2ncnc(NC3CC3c3ccc(Cl)cc3)n2)c1 (stereo unspecified), C=CC(=O)Nc1ccc(Nc2ncnc(Nc3ccc(OCCOC)c(OC)c3)n2)cc1, C=CC(=O)Nc1cccc(Nc2ncnc(N(CC)c3cccc(C)c3)n2)c1, CC#CC(=O)Nc1cccc(Nc2ncnc(N(C)c3ccc(OCCO)cc3)n2)c1, C=CC(=O)Nc1cccc(Nc2ncnc(N(CC)c3cc(Cl)ccc3C)n2)c1, C=CC(=O)Nc1cccc(Nc2ncnc(NN3CCCc4cc(Cl)ccc43)n2)c1, C=CC(=O)Nc1ccc(Nc2ncnc(N(CC)c3ccc(OCCO)cc3)n2)cc1, CCN(c1ccc2NN(=Cc2c1)Cc3ccccn3)c4ncnc(Nc5ccc(NC(=O)C=C)cc5)n4, C=CC(=O)Nc1ccc(Nc2ncnc(N(C)c3ccc(OCCOC)c(OC)c3)n2)cc1, CC#CC(=O)Nc1cc(Nc2ncnc(N(C)c3cccc(Cl)c3)n2)ccc1OCCCN1CCOCC1, CC#CC(=O)Nc1cccc(Nc2ncnc(Nc3ccc4NN(=Cc4c3)Cc5ccccn5)n2)c1, C=CCN(c1ncnc(Nc2ccc(NC(=O)C=C)cc2)n1)c1cccc2ccccc12, C=CC(=O)Nc1ccc(Nc2ncnc(Nc3ccc(OCc4ccccc4)c(Cl)c3)n2)cc1, C=CC(=O)Nc1cccc(Nc2ncnc(N(C)c3cccc(C)c3)n2)c1, C=CC(=O)Nc1cccc(Nc2ncnc(Nc3cccc(Cl)c3)n2)c1, CC#CC(=O)Nc1cccc(Nc2ncnc(N(C)c3cc(Cl)cc4ccccc34)n2)c1, C=CC(=O)Nc1cccc(Nc2ncnc(Nc3ccc(C(=O)OC)cc3)n2)c1, C=CCN(c1cccc(Cl)c1)c1ncnc(Nc2cccc(NC(=O)C#CC)c2)n1, C=CC(=O)Nc1cccc(Nc2ncnc(Nc3ccc(OCc4ccccc4Br)c(Cl)c3)n2)c1, C=CC(=O)Nc1cccc(Nc2ncnc(N(C)c3ccc(OCCO)cc3)n2)c1, CC#CC(=O)Nc1cccc(Nc2ncnc(N(CC)c3ccc(C(=O)OC)cc3)n2)c1, C=CC(=O)Nc1ccc(Nc2ncnc(NC3CC3c3ccccc3)n2)cc1 (stereo unspecified), C=CC(=O)Nc1cccc(Nc2ncnc(N(C)c3cccc(S(=O)(=O)c4ccc([N+](=O)[O-])cc4)c3)n2)c1, C=CC(=O)Nc1ccc(Nc2ncnc(N(CC)c3cccc(S(=O)(=O)c4ccc([N+](=O)[O-])cc4)c3)n2)cc1, C=CC(=O)Nc1cccc(Nc2ncnc(N(CC)c3ccc(OCc4ccccc4)cc3)n2)c1, C=CCN(c1ccc(C(=O)OC)cc1)c1ncnc(Nc2ccc(NC(=O)C=C)cc2)n1, C#Cc1cccc(Nc2ncnc(Nc3cccc(NC(=O)C=C)c3)n2)c1, C=CC(=O)Nc1cc(Nc2ncnc(N(C)c3ccc4c(ccn4Cc4ccccc4)c3)n2)ccc1OCCCC1CCN(C)CC1, C=CC(=O)Nc1cc(Nc2ncnc(Nc3cccc(Cl)c3)n2)ccc1OCCCC1CCN(C)CC1, C=CCN(c1ccc2NN(=Cc2c1)Cc3ccccn3)c4ncnc(Nc5ccc(NC(=O)C=C)cc5)n4, CC#CC(=O)Nc1cc(Nc2ncnc(Nc3cccc(Cl)c3)n2)ccc1OCCCC1CCN(C)CC1, CC#CC(=O)Nc1cccc(Nc2ncnc(Nn3c(=O)[nH]c4ccccc43)n2)c1, C=CC(=O)Nc1ccc(Nc2ncnc(N(CC)C3CC3c3ccccc3)n2)cc1 (stereo unspecified), C=CC(=O)Nc1cccc(Nc2ncnc(Nc3ccc4nc(Cc5ccccc5)[nH]c4c3)n2)c1, C=CCN(c1cccc(CC(=O)OC)c1)c1ncnc(Nc2ccc(NC(=O)C=C)cc2)n1, C=CC(=O)Nc1ccc(Nc2ncnc(Nc3ccc(OCCO)cc3)n2)cc1, C=CCN(c1ccc(OC)c(OCCOC)c1)c1ncnc(Nc2ccc(NC(=O)C=C)cc2)n1, CC#CC(=O)Nc1cc(Nc2ncnc(N(C)c3ccc4c(cnn4Cc4ccccc4)c3)n2)ccc1OCCCN1CCOCC1, C/C=C/C(=O)Nc1cccc(Nc2ncnc(NC3CC3c3ccccc3)n2)c1 (stereo unspecified), C=CCN(c1cccc(Cl)c1)c1ncnc(Nc2ccc(NC(=O)C=C)cc2)n1, CC#CC(=O)Nc1cccc(Nc2ncnc(Nc3ccc(OCC)c(OCC)c3)n2)c1, CC#CC(=O)Nc1cc(Nc2ncnc(Nc3ccc4c(ccn4Cc4ccccc4)c3)n2)ccc1OCCCC1CCN(C)CC1, C=CC(=O)Nc1ccc(Nc2ncnc(Nc3ccc(OC)cc3)n2)cc1, C=CC(=O)Nc1ccc(Nc2ncnc(N(CC)c3ccc(F)c(Cl)c3)n2)cc1, C=CCN(c1cccc(CC(=O)OC)c1)c1ncnc(Nc2cccc(NC(=O)C#CC)c2)n1, C=CC(=O)Nc1cc(Nc2ncnc(Nc3ccc4c(cnn4Cc4ccccc4)c3)n2)ccc1OCCCN1CCOCC1, C=CC(=O)Nc1cc(Nc2ncnc(Nc3ccc4c(cnn4Cc4ccccc4)c3)n2)ccc1OC, CC#CC(=O)Nc1cccc(Nc2ncnc(N(CC)c3ccc(OC)c(OC)c3)n2)c1, C=CC(=O)Nc1ccc(Nc2ncnc(N(C)c3cc(Cl)cc4ccccc34)n2)cc1, C=CCN(c1cc(OC)c(OC)c(OCCN2CCOCC2)c1)c1ncnc(Nc2cccc(NC(=O)C#CC)c2)n1, C=CC(=O)Nc1cccc(Nc2ncnc(N(C)c3ccc(OC)c(OC)c3)n2)c1, C=CCN(c1ncnc(Nc2cccc(NC(=O)C#CC)c2)n1)n1c(=O)n(C(=O)C(C)(C)C)c2ccccc21, CC#CC(=O)Nc1cccc(Nc2ncnc(N(C)c3ccc(OCC)c(OCC)c3)n2)c1, C=CC(=O)Nc1ccc(Nc2ncnc(N(C)c3cccc(C(N)=O)c3)n2)cc1, C=CC(=O)Nc1cccc(Nc2ncnc(NN3CCCc4c(Cl)cccc43)n2)c1, CC#CC(=O)Nc1cc(Nc2ncnc(Nc3ccc4c(ccn4Cc4ccccc4)c3)n2)ccc1OCCCN1CCOCC1, C=CC(=O)Nc1cc(Nc2ncnc(NN3CCCc4ccc(Cl)cc43)n2)ccc1OCCCN1CCOCC1, C=CC(=O)Nc1cc(Nc2ncnc(N(C)c3ccc4c(cnn4Cc4ccccc4)c3)n2)ccc1OCCCC1CCN(C)CC1, C#CCC(=O)Nc1cccc(Nc2ncnc(NN3CCCc4c(Cl)cccc43)n2)c1, CC#CC(=O)Nc1cc(Nc2ncnc(N(C)c3ccc4c(ccn4Cc4ccccc4)c3)n2)ccc1OCCCN1CCOCC1, C=CC(=O)Nc1cccc(Nc2ncnc(N(C)c3ccc(OCCC)c(OCCC)c3)n2)c1, C=CC(=O)Nc1cccc(Nc2ncnc(N(CC)c3cc(OC)c(OC)c(OCCN4CCOCC4)c3)n2)c1, C=CCN(c1ncnc(Nc2ccc(NC(=O)C=C)cc2)n1)c1cc(Cl)ccc1C, C=CC(=O)Nc1ccc(Nc2ncnc(Nn3c(=O)[nH]c4ccccc43)n2)cc1, C=CC(=O)N1CCc2ccc(Nc3ncnc(Nc4ccc5c(cnn5Cc5ccccc5)c4)n3)cc21, C=CCN(c1ncnc(Nc2cccc(NC(=O)C=C)c2)n1)c1cc(Cl)cc2ccccc12, C=CC(=O)Nc1ccc(Nc2ncnc(NN3CCCc4cc(C)ccc43)n2)cc1, C=CC(=O)Nc1ccc(Nc2ncnc(Nc3ccc4NN(=Cc4c3)Cc5ccccn5)n2)cc1, C=CC(=O)Nc1ccc(Nc2ncnc(N(C)c3ccc(OC)c(OCCOC)c3)n2)cc1, C=CC(=O)n1ncc2ccc(Nc3ncnc(Nc4ccc5c(cnn5Cc5ccccc5)c4)n3)cc21, CC#CC(=O)Nc1cccc(Nc2ncnc(N(CC)c3cccc(C)c3)n2)c1, C=CC(=O)Nc1ccc(Nc2ncnc(NN3CCCc4cc(OC)ccc43)n2)cc1, CC#CC(=O)Nc1cccc(Nc2ncnc(N(C)c3ccc(OCc4ccccc4)c(Cl)c3)n2)c1, CC#CC(=O)Nc1cc(Nc2ncnc(Nc3ccc4c(cnn4Cc4ccccc4)c3)n2)ccc1OCCCC1CCN(C)CC1, C=CC(=O)Nc1ccc(Nc2ncnc(N(CC)c3cccc(C)c3)n2)cc1
